Test: Inhibitory activity against IMP-1 metallo-beta-lactamase (MBL)

| Compound | IC50 |
| --- | --- |
| O=C(S[C@H](Cc1ccc(-c2ccccc2)cc1)C(=O)O)c1ccccc1 | 0.00041 µM |
| C[C@@H](NC(=O)c1ccc2ccccc2c1)C(=O)S[C@H](Cc1ccc(-c2ccccc2)cc1)C(=O)O | 18 µM |
| CC(=O)S[C@@H](Cc1ccccc1)C(=O)O | 740 µM |
| CC(C)C(=O)N[C@H](C)C(=O)S[C@H](Cc1ccc(-c2ccccc2)cc1)C(=O)O | 9.7 µM |
| CC(=O)N[C@H](C)C(=O)S[C@H](Cc1ccccc1)C(=O)O | 63 µM |
| CCC(=O)N[C@H](C)C(=O)S[C@H](Cc1ccc(-c2ccccc2)cc1)C(=O)O | 9.5 µM |
| C[C@@H](NC(=O)Cc1cccnc1)C(=O)S[C@H](Cc1ccc(-c2ccccc2)cc1)C(=O)O | 32 µM |
| O=C(O)[C@H](S)Cc1ccc(-c2ccccc2)cc1 | 0.057 µM |
| C[C@@H](NC(=O)Cc1ccc(N(C)C)cc1)C(=O)S[C@H](Cc1ccc(-c2ccccc2)cc1)C(=O)O | 55 µM |
| C[C@@H](NC(=O)CNC(=O)c1ccccc1)C(=O)S[C@H](Cc1ccc(-c2ccccc2)cc1)C(=O)O | 50 µM |
| C[C@@H](NC(=O)c1cccc(N(C)C)c1)C(=O)S[C@H](Cc1ccc(-c2ccccc2)cc1)C(=O)O | 15 µM |
| CCCCC(=O)N[C@H](C)C(=O)S[C@H](Cc1ccc(-c2ccccc2)cc1)C(=O)O | 4.8 µM |
| C=CCOC(=O)N[C@H](C)C(=O)S[C@H](Cc1ccc(-c2ccccc2)cc1)C(=O)O | 4.4 µM |
| CC(=O)N[C@H](C)C(=O)S[C@H](Cc1ccc2oc3ccccc3c2c1)C(=O)O | 2 µM |
| CC(=O)S[C@H](Cc1ccc(-c2ccccc2)cc1)C(=O)O | 0.084 µM |
| C[C@@H](NC(=O)CCC(=O)O)C(=O)S[C@H](Cc1ccc(-c2ccccc2)cc1)C(=O)O | 4.7 µM |
| C[C@@H](NC(=O)c1ccccc1)C(=O)SCC(=O)O | 240 µM |
| O=C(S[C@H](Cc1ccccc1)C(=O)O)c1ccccc1 | 0.064 µM |
| CC(=O)S[C@H](Cc1ccc2oc3ccccc3c2c1)C(=O)O | 0.045 µM |

| Compound | IC50 |
| --- | --- |
| C[C@@H](NC(=O)Cc1ccc(O)cc1)C(=O)S[C@H](Cc1ccc(-c2ccccc2)cc1)C(=O)O | 3.1 µM |
| C[C@@H](NC(=O)CCCC(=O)O)C(=O)S[C@H](Cc1ccc(-c2ccccc2)cc1)C(=O)O | 91 µM |
| CC(C)CC(=O)N[C@H](C)C(=O)S[C@H](Cc1ccc(-c2ccccc2)cc1)C(=O)O | 5.3 µM |
| C[C@@H](NC(=O)c1ccccc1)C(=O)S[C@H](Cc1ccc2oc3ccccc3c2c1)C(=O)O | 1.5 µM |
| O=C(S[C@H](Cc1ccc2oc3ccccc3c2c1)C(=O)O)c1ccccc1 | 0.0013 µM |
| C[C@@H](NC(=O)COc1ccccc1)C(=O)S[C@H](Cc1ccc(-c2ccccc2)cc1)C(=O)O | 1 µM |
| CC(=O)N[C@H](C)C(=O)S[C@H](Cc1ccc(-c2ccccc2)cc1)C(=O)O | 18 µM |
| COc1cc(OC)c(C(=O)N[C@H](C)C(=O)S[C@H](Cc2ccc(-c3ccccc3)cc2)C(=O)O)c(OC)c1 | 46 µM |
| C[C@@H](NC(=O)c1ccccc1)C(=O)S[C@H](Cc1ccc(-c2ccccc2)cc1)C(=O)O | 3.6 µM |
| O=C(O)[C@@H](S)Cc1ccccc1 | 3.7 µM |
| COc1cccc(C(=O)N[C@H](C)C(=O)S[C@H](Cc2ccc(-c3ccccc3)cc2)C(=O)O)c1 | 38 µM |
| CCCCCC(=O)N[C@H](C)C(=O)S[C@H](Cc1ccc(-c2ccccc2)cc1)C(=O)O | 13 µM |
| C/C=C/C(=O)N[C@H](C)C(=O)S[C@H](Cc1ccc(-c2ccccc2)cc1)C(=O)O | 33 µM |
| C[C@@H](NC(=O)Cc1cccc2ccccc12)C(=O)S[C@H](Cc1ccc(-c2ccccc2)cc1)C(=O)O | 12 µM |
| C[C@@H](NC(=O)Cc1ccccc1)C(=O)S[C@H](Cc1ccc(-c2ccccc2)cc1)C(=O)O | 5.8 µM |
| C[C@@H](NC(=O)c1ccccc1)C(=O)S[C@@H](Cc1ccc2oc3ccccc3c2c1)C(=O)O | 430 µM |
| C=CCOC(=O)N[C@H](C)C(=O)S[C@H](Cc1ccc2oc3ccccc3c2c1)C(=O)O | 2.9 µM |
| CC(=O)S[C@@H](Cc1ccc(-c2ccccc2)cc1)C(=O)O | 74 µM |
| C[C@@H](NC(=O)c1ccccc1)C(=O)S[C@H](Cc1ccccc1)C(=O)O | 20 µM |

| Compound | IC50 |
| --- | --- |
| CCCC(=O)N[C@H](C)C(=O)S[C@H](Cc1ccc(-c2ccccc2)cc1)C(=O)O | 9.3 µM |
| C[C@@H](NC(=O)Cc1ccccc1OCc1ccccc1)C(=O)S[C@H](Cc1ccc(-c2ccccc2)cc1)C(=O)O | 24 µM |
| C=CCOC(=O)N[C@H](C)C(=O)S[C@H](Cc1ccccc1)C(=O)O | 64 µM |
| CC(=O)S[C@@H](Cc1ccc2oc3ccccc3c2c1)C(=O)O | 160 µM |
| C[C@@H](NC(=O)/C=C/c1ccccc1)C(=O)S[C@H](Cc1ccc(-c2ccccc2)cc1)C(=O)O | 11 µM |
| C[C@@H](NC(=O)CCC(=O)c1ccccc1)C(=O)S[C@H](Cc1ccc(-c2ccccc2)cc1)C(=O)O | 0.25 µM |
| O=C(S[C@@H](Cc1ccc2oc3ccccc3c2c1)C(=O)O)c1ccccc1 | 49 µM |
| COc1ccc(CC(=O)N[C@H](C)C(=O)S[C@H](Cc2ccc(-c3ccccc3)cc2)C(=O)O)cc1 | 12 µM |
| CC(=O)S[C@H](Cc1ccccc1)C(=O)O | 12 µM |
| C[C@@H](NC(=O)CCc1ccccc1)C(=O)S[C@H](Cc1ccc(-c2ccccc2)cc1)C(=O)O | 15 µM |
| O=C(O)[C@H](S)Cc1ccccc1 | 0.086 µM |
| O=C(O)[C@H](S)Cc1ccc2oc3ccccc3c2c1 | 0.023 µM |
| C[C@@H](NC(=O)CSCC(=O)O)C(=O)S[C@H](Cc1ccc(-c2ccccc2)cc1)C(=O)O | 13 µM |
| O=C(O)[C@@H](S)Cc1ccc2oc3ccccc3c2c1 | 0.25 µM |
| O=C(S[C@@H](Cc1ccc(-c2ccccc2)cc1)C(=O)O)c1ccccc1 | 120 µM |
| O=C(S[C@@H](Cc1ccccc1)C(=O)O)c1ccccc1 | 2.5 µM |
| O=C(O)[C@@H](S)Cc1ccc(-c2ccccc2)cc1 | 1.2 µM |
| COc1ccc(C(=O)N[C@H](C)C(=O)S[C@H](Cc2ccc(-c3ccccc3)cc2)C(=O)O)cc1 | 29 µM |

From ChEMBL document CHEMBL1132104, “Synthesis and SAR of thioester and thiol inhibitors of IMP-1 metallo-beta-lactamase” (Bioorg Med Chem Lett, 1999)
